Reference: patent US20240293551A1, “USE OF ST-TYPE LIPID COMPOUNDS IN PREPARATION OF NUCLEIC ACID DELIVERY REAGENT AND RELATED PRODUCT” (INSTITUTE OF BASIC MEDICAL SCIENCES CHINESE ACADEMY OF …, priority 2021, published 2024)

System: PGY-sRNA-26
Assay: In vivo delivery study of lipid-nucleic acid mixture (oral gavage, RT-qPCR of PGY-sRNA-26 in tissues)
Design: species or system mouse
Conditions: C57BL/6 mice, gavage, 100 μg lipid: 10 nmol PGY-sRNA-26, 12 hours; for delivery efficacy over each tissue and blood tested (broad-spectrum delivery): all tissues and blood tested; for oral delivery of single-stranded sRNA nucleic acids into mouse intestinal tissue: intestine
Method: 10 nmol of small RNA (as shown in Table 2) was dissolved in 400 μl of DEPC-treated water in a glass tube, 10 μl of the corresponding lipid stock solution was added such that the lipid mass in the system was 100 μg. The mixture was mixed thoroughly, heated in a 90° C. water bath for 15 minutes, and then cooled naturally to obtain the lipid nucleic acid mixture of lipid and small RNA.
C57BL/6 male mice, approximately 6 weeks old, weighing 20-24 g, were obtained from Beijing Vital River Laboratory Animal Technology Co., Ltd. The mice were housed in the SPF-grade animal facility at the Animal Center of the Institute of Basic Medical Sciences, Chinese Academy of Medical Sciences. The mice were fasted for 12 hours before gavage administration.
The resultant lipid nucleic acid mixture was orally administered to each mouse at a dose of 100 μg lipid: 10 nmol single-stranded 3′-methylated small RNA PGY-sRNA-26.
• 1) Blank group (n=4): mice were administered with 500 μl saline by gavage, this group served as a blank control; • 2) Free uptake group (n=4): mice were directly administered with small RNA PGY-sRNA-26 solution (10 nmol/mouse, 500 μl) by gavage, this group served as a negative control; • 3) Lipid-treated group (n=4): mice were administered with 500 μl lipid nucleic acid mixture prepared in step 2 by gavage.
After 12 hours of gavage administration, 500 μl blood from the eyeball of each mouse was sampled, added to 1.5 ml Trizol Reagent LS (purchased from Invitrogen), thoroughly mixed for lysis. 3 ml of Trizol Reagent LSwas added to tissue samples and homogenized for complete lysis, wherein the sampled tissues include heart, liver, spleen, lung, kidney, stomach, intestine, brain, blood, femur. RNA was extracted from 1 ml of the blood or the tissue lysate following the steps below: • Centrifuge at 4° C., 12,000 rpm for 5 min, discard the precipitate, transfer Trizol to a new centrifuge tube; • Add chloroform at 200 μL chloroform/mL Trizol, shake well, stand at room temperature for 5 min; • Centrifuge at 4° C., 12,000 rpm for 15 min; • Take the upper aqueous phase to another centrifuge tube, add isopropanol at 0.4 mL isopropanol/mL Trizol, mix well, and stand at low temperature for 10-20 min; • Centrifuge at 4° C., 12,000 rpm for 15 min, discard the supernatant, RNA precipitated at the bottom of the tube; • Add 1 mL of 75% ethanol, gently shake the centrifuge tube, suspend the precipitate; • Centrifuge at 4° C., 12,000 rpm for 15 min, discard the supernatant, add 1 mL of 75% ethanol, gently shake the centrifuge tube, suspend the precipitate; • Centrifuge at 4° C., 12,000 rpm for 15 min, discard the supernatant, air-dry at room temperature, dissolve RNA samples in 50 μL RNase-free H2O, measure OD value to quantify RNA concentration. 3.3 Reverse Transcription of sRNA to cDNA:
The reverse transcription system is as follows: Template RNA (200 ng/μL) 10 μL, 10×RT Buffer 2.0 μL, 25×dNTP Mix (100 mM) 0.8 μL, U6 RT stem-loop primer (10 μM) 2.0 μL, PGY-sRNA-26 RT stem-loop primer (10 μM) 2.0 μL, MultiScribe™ Reverse Transcriptase (50 U/μL) 1.0 μL, RNAse Inhibitor (40 U/μL) 1.0 μL, nuclease-free H2O 1.2 μL. After transient centrifugation, the reverse transcription system was placed in a PCR machine with the following reaction conditions: (1) 25° C., 10 min; (2) 37° C., 120 min; (3) 85° C., 5 min; (4) 4° C., stop reaction. After the reaction, add 20 μL RNAse-free ddH2O, adjust the final volume to 40 μL. The stem-loop primers used in this reverse transcription process were synthesized by Beijing Tianyi Huiyuan Biotechnology Co., Ltd. (U6 was used as a standard reference gene to calculate its relative expression, because U6 RT primer was used as a reference gene in relative quantification of RT-qPCR reactions for small RNA): […]

Row | Compound | delivery efficacy over each tissue and blood tested (broad-spectrum delivery) | oral delivery of single-stranded sRNA nucleic acids into mouse blood | oral delivery of single-stranded sRNA nucleic acids into mouse brain tissue | oral delivery of single-stranded sRNA nucleic acids into mouse femur | oral delivery of single-stranded sRNA nucleic acids into mouse heart tissue | oral delivery of single-stranded sRNA nucleic acids into mouse intestinal tissue | oral delivery of single-stranded sRNA nucleic acids into mouse kidney tissue | oral delivery of single-stranded sRNA nucleic acids into mouse liver tissue | oral delivery of single-stranded sRNA nucleic acids into mouse lung tissue | oral delivery of single-stranded sRNA nucleic acids into mouse spleen tissue | oral delivery of single-stranded sRNA nucleic acids into mouse stomach tissue
1 | CC(C)CCC[C@@H](C)[C@H]1CC[C@H]2[C@@H]3C[C@@H](O)[C@@]4(O)C[C@@H](O)CC[C@]4(C)[C@H]3CC[C@]12C [Lipid 551, Cholestan-3,5,6-triol (3S,5R,6R,8S,9S,10R,13R,14S,17R)-10,13-dimethyl-17-[(2R)-6-methylheptan-2-yl]-1,2,3,4,6,7,8,9,11,12,14,15,16,17-tetradecahydrocyclopenta[a]phenanthrene-3,5,6-triol] | exhibited the best delivery efficacy | can effectively orally deliver | can effectively orally deliver | can effectively orally deliver | can effectively orally deliver | can effectively orally deliver | can effectively orally deliver | can effectively orally deliver | can effectively orally deliver | can effectively orally deliver | can effectively orally deliver
2 | C[C@H](CCC(=O)NCC(=O)O)[C@H]1CC[C@H]2[C@@H]3CC[C@@H]4C[C@H](O)CC[C@]4(C)[C@H]3C[C@H](O)[C@]12C [Lipid 552] | exhibited the best delivery efficacy | can effectively orally deliver | can effectively orally deliver | can effectively orally deliver | can effectively orally deliver | can effectively orally deliver | can effectively orally deliver | can effectively orally deliver | can effectively orally deliver | can effectively orally deliver | can effectively orally deliver
3 | C[C@H](CCC(=O)NCC(=O)O)[C@H]1CC[C@H]2[C@@H]3[C@H](O)C[C@@H]4C[C@H](O)CC[C@]4(C)[C@H]3C[C@H](O)[C@]12C [Lipid 553] | exhibited the best delivery efficacy | can effectively orally deliver | can effectively orally deliver | can effectively orally deliver | can effectively orally deliver | can effectively orally deliver | can effectively orally deliver | can effectively orally deliver | can effectively orally deliver | can effectively orally deliver | can effectively orally deliver
4 | C=C1/C(=C\C=C2/CCC[C@]3(C)[C@@H]([C@H](C)/C=C/[C@@H](O)C4CC4)CC[C@@H]23)C[C@@H](O)C[C@@H]1O [Lipid 554] | exhibited the best delivery efficacy | can effectively orally deliver | can effectively orally deliver | can effectively orally deliver | can effectively orally deliver | can effectively orally deliver | can effectively orally deliver | can effectively orally deliver | can effectively orally deliver | can effectively orally deliver | can effectively orally deliver
5 | C[C@]12CCC(=O)C=C1CC[C@@H]1[C@@H]2[C@@H](O)C[C@]2(C)C(=O)CC[C@@H]12 [Lipid 555] | exhibited the best delivery efficacy | can effectively orally deliver | can effectively orally deliver | can effectively orally deliver | can effectively orally deliver | can effectively orally deliver | can effectively orally deliver | can effectively orally deliver | can effectively orally deliver | can effectively orally deliver | can effectively orally deliver
6 | CCCCC(=O)O[C@H]1CC[C@H]2[C@@H]3CCc4cc(O)ccc4[C@H]3CC[C@]12C [Lipid 556] | exhibited the best delivery efficacy | can effectively orally deliver | can effectively orally deliver | can effectively orally deliver | can effectively orally deliver | can effectively orally deliver | can effectively orally deliver | can effectively orally deliver | can effectively orally deliver | can effectively orally deliver | can effectively orally deliver
